This is an account of results in patent US7264925B2, “Method for analysis of oligonucleotide analogs” (AVI BioPharma, Inc., priority 2000, dated 2007).

“And” between values parts separate entries of the source, which are not always exact repeats. Identical values can stand only once.

A short description of the series: Quantitation of PMO in plasma of cynomolgus monkeys following i.v. injection (anion exchange HPLC of the duplex with 5'-fluorescein labeled DNA). The series is classed as in vivo. The protocol: • HPLC conditions: • Column: Dionex DNA Pac™ PA-100 (250×4 mm, 15μ particle size) • Mobile Phases: A: 0.025 M Tris (pH 9); B: 0.025 M Tris (pH 9)/1 M NaCl • Gradient: A:B:C 90/10 @ 0 min to 55/45 @ 20 min • Flow Rate: 1.5 mL/min • Wavelength: 494 nm excitation; 518 detection • Temperature: 25° C.
Cynomolgus monkeys were injected i.v. with the analyte PMO, and blood samples were taken at various time intervals, as shown in Table 2. In a typical analysis, 200 μL of plasma was combined with a known amount (e.g. 500 ng) of internal standard (FIG. 11) in 10 μL of 0.025 M Tris buffer, pH 8-9. Methanol (200.0 μL) was added, and the sample was mixed using a vortex mixer. The precipitate was removed with the aid of high speed centrifugation. The supernatant was removed and the pellet washed with 100 μL Tris buffer; the wash was added to the supernatant. The mixture was heated at 70° C. for a period of 10 minutes, and the sample was once again subjected to high speed centrifugation. The supernatant was transferred and lyophilized to dryness. The dry material was reconstituted with a 100.0 μL aliquot of DNA (5′-fluorescein labeled) in 0.025 M Tris (pH 8-9) and transferred to an autosampler vial, and the entire sample was injected onto the HPLC column and analyzed.
A calibration was performed by analysis of plasma standards containing from 250 to 20,000 ng of AVI-4126. The data were plotted as the ratio of analyte to internal standard signal intensities versus the ratio of analyte to internal standard concentrations.
The level detected in this assay was 10.0 ng analyte, which corresponded to 50 ng/mL. The sensitivity of this method thus far exceeds the detection and quantitation limits of UV based methods.

Regarding “PMO: PMO (phosphorodiamidate morpholino oligomer) having the sequence ACGTTGAGGGGCATCGTCGC (SEQ ID NO: 1), antisense to human c-myc (antisense ACGTTGAGGGGCATCGTCGC; all phosphorodiamidate morpholino (PMO))”, the “level detected in representative assay (FIG. 12), amount of analyte” value (200 μL plasma sample, representative assay, time point not stated) is 10.0 ng. Moreover, where the note is “corresponds to 10.0 ng analyte in plasma sample, time point not stated”, the “level detected in representative assay (FIG. 12), plasma concentration” value came to 50 ng/mL. Moreover, where the note is “cynomolgus monkey plasma, i.v. injection, 10 min, one value per monkey ID”, the “Quantitation of PMO in plasma, 10 min” value is 92.505 µg/mL and 105.37 µg/mL and 105.685 µg/mL. Also, the “Quantitation of PMO in plasma, 2 h” value (cynomolgus monkey plasma, i.v. injection, 2 h, one value per monkey ID) is 49.895 µg/mL and 68.025 µg/mL and 49.755 µg/mL. Where the note is “cynomolgus monkey plasma, i.v. injection, 6 hr, one value per monkey ID”, the “Quantitation of PMO in plasma, 6 hr” value was 29.81 µg/mL and 45.33 µg/mL and 32.015 µg/mL. In addition, the “Quantitation of PMO in plasma, 24 hr” value (cynomolgus monkey plasma, i.v. injection, 24 hr, one value per monkey ID) was 17.575 µg/mL and 14.895 µg/mL and 12.645 µg/mL.
